In ChEMBL document CHEMBL3991601, “The target landscape of clinical kinase drugs” (Science, 2017) one finds Kd data, which are given here for 8 compounds.

Active and inactive are the calls of the source. Rule as the data show it, for most assays here: actives have a measured Kd and inactives only a lower limit. Bounds are passed on as bounds.

Experiment [1] addresses Mitogen-activated protein kinase kinase kinase 4 (Homo sapiens, UniProt Q9Y6R4).
The target of experiment [2] is Tyrosine-protein kinase JAK1 (Homo sapiens, UniProt P23458).
Chain of Tyrosine-protein kinase JAK1 (P23458 whole entry): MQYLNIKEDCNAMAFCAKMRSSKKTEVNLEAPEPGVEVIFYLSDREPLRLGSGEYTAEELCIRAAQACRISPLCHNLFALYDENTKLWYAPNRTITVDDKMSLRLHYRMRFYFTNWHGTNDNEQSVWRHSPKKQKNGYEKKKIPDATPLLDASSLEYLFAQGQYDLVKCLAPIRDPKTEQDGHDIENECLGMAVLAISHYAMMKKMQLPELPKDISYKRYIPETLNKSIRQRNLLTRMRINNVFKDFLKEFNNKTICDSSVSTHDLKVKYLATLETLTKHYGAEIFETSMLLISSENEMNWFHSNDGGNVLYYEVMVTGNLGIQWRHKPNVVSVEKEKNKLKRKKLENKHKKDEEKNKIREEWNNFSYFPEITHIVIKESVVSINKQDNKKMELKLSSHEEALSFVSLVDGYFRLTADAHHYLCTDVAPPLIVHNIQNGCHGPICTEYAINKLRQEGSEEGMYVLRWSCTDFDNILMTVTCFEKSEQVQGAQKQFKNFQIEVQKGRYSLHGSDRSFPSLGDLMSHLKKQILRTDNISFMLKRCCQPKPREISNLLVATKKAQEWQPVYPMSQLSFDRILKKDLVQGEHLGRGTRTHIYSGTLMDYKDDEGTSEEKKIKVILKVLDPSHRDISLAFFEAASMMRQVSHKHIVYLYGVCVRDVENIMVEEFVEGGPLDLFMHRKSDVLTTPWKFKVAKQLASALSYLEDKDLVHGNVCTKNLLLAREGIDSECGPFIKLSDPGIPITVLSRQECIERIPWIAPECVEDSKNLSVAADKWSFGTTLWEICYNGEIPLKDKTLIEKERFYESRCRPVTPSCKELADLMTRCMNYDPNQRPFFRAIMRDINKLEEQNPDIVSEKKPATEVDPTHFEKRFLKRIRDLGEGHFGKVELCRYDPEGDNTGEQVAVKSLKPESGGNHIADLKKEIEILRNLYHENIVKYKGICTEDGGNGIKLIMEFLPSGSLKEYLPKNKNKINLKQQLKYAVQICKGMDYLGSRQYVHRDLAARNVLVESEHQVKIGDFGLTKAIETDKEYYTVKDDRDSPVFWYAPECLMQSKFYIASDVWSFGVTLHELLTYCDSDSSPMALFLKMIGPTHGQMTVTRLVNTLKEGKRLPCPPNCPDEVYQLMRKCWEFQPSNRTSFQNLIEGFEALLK
Experiment [3] addresses Mitotic checkpoint serine/threonine-protein kinase BUB1 (Homo sapiens, UniProt O43683).
For experiment [4], the target named is Cyclin-dependent kinase 13 (Homo sapiens, UniProt Q14004).
Experiment [5] addresses DnaJ homolog subfamily A member 1 (Homo sapiens, UniProt P31689).
Experiment [6] concerns the target ATP-dependent RNA helicase DDX3X (Homo sapiens, UniProt O00571).
Experiment [7] deals with Myosin light chain kinase, smooth muscle (Homo sapiens, UniProt Q15746).
In experiment [8] the target is Platelet-derived growth factor receptor beta (Homo sapiens, UniProt P09619).
Chain of Platelet-derived growth factor receptor beta (P09619 whole entry): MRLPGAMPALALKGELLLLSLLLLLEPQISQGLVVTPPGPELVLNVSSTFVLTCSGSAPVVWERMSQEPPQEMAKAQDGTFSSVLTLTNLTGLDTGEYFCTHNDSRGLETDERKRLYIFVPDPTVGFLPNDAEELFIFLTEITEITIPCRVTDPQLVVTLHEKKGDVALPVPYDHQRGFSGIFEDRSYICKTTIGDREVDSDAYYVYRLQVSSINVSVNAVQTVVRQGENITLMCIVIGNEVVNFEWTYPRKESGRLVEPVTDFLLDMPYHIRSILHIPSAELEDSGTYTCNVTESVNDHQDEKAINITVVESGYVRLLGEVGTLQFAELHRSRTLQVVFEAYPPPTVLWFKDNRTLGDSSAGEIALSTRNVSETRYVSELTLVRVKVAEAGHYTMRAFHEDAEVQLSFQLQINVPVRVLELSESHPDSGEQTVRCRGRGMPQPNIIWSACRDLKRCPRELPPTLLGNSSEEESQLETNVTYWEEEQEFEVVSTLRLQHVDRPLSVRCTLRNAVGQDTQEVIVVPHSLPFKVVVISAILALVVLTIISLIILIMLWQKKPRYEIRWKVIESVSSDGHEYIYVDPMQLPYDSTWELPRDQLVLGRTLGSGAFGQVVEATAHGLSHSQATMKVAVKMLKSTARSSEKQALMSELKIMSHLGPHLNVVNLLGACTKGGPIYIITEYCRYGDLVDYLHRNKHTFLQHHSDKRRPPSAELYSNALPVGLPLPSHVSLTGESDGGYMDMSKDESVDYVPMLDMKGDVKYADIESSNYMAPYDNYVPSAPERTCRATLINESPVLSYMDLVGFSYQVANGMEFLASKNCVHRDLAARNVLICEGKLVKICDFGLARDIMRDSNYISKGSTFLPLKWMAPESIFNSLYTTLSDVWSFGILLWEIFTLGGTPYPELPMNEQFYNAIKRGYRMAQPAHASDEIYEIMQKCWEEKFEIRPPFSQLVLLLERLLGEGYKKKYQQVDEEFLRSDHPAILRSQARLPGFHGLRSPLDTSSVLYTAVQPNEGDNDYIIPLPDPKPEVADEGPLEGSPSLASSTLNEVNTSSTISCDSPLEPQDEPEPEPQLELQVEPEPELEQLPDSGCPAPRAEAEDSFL
Experiment [9] addresses T1, Serine/threonine-protein kinase D2 (Homo sapiens, UniProt Q9BZL6).
T1 sequence (Q9BZL6 whole entry): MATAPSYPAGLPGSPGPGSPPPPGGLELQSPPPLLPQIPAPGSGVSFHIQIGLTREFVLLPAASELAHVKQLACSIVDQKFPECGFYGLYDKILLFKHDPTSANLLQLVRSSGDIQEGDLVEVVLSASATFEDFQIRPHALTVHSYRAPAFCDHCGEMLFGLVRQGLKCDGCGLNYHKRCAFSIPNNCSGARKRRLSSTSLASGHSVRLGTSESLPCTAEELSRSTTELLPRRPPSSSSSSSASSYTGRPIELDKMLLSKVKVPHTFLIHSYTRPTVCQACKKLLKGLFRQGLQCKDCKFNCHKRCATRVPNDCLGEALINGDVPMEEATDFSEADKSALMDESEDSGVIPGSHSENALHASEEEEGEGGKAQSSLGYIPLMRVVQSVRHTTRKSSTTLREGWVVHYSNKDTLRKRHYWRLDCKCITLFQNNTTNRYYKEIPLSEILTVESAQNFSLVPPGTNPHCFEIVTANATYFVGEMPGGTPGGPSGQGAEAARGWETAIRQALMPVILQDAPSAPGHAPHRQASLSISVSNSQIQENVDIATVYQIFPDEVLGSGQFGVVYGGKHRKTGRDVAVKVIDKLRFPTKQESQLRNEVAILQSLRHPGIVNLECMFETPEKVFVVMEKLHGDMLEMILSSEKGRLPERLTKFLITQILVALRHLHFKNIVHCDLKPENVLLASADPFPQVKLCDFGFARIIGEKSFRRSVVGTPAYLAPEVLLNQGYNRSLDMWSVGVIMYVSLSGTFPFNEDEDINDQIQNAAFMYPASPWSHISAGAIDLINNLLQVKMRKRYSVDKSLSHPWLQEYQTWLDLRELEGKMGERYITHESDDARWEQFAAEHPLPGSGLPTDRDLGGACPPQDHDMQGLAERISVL

Experiment [10] concerns the target T2, Serine/threonine-protein kinase Nek2 (Homo sapiens, UniProt P51955).
T2 sequence (P51955 whole entry): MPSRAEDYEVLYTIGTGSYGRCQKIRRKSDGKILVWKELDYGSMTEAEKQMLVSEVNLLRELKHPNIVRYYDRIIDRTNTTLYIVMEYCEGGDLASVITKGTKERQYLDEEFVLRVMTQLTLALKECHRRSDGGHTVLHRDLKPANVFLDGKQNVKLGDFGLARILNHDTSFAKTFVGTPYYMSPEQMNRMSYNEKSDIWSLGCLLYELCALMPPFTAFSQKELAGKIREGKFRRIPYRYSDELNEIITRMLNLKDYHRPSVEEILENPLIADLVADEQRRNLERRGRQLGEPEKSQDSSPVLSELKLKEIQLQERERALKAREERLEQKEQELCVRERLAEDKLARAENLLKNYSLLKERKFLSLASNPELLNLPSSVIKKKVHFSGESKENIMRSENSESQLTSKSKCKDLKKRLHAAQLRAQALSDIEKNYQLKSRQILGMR

The target of experiment [11] is T3, Delta(24)-sterol reductase (Homo sapiens, UniProt Q15392).
T3 sequence (Q15392 whole entry): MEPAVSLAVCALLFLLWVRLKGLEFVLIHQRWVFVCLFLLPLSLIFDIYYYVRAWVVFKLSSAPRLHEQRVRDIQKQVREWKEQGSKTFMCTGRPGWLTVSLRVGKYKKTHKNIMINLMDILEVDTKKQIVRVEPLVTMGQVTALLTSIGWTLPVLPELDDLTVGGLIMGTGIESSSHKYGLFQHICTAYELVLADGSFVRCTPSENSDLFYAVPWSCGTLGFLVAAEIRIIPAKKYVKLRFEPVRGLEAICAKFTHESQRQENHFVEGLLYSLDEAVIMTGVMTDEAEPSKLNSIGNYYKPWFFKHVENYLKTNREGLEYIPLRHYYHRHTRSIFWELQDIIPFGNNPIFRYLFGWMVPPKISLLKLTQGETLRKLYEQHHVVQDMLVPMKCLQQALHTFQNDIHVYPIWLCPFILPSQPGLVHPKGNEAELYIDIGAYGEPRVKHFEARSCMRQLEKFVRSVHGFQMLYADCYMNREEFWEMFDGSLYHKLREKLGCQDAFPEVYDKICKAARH

Experiment [12] deals with Citron Rho-interacting kinase (Homo sapiens, UniProt O14578).
The target of experiment [13] is T4, Ras-related protein Rab-27A (Homo sapiens, UniProt P51159).
T4 sequence (P51159 whole entry): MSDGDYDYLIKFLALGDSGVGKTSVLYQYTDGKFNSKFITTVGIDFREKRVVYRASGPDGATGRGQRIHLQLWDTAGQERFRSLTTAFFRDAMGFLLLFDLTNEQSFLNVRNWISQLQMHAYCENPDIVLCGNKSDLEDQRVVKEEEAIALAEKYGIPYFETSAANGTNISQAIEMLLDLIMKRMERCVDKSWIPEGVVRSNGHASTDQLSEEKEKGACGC

The target in experiment [14] is Ephrin type-A receptor 4 (Homo sapiens, UniProt P54764).
Also: in the data inactive means no Kd found up to 30 µM.

Chain of Mitogen-activated protein kinase kinase kinase 4 (Q9Y6R4 whole entry): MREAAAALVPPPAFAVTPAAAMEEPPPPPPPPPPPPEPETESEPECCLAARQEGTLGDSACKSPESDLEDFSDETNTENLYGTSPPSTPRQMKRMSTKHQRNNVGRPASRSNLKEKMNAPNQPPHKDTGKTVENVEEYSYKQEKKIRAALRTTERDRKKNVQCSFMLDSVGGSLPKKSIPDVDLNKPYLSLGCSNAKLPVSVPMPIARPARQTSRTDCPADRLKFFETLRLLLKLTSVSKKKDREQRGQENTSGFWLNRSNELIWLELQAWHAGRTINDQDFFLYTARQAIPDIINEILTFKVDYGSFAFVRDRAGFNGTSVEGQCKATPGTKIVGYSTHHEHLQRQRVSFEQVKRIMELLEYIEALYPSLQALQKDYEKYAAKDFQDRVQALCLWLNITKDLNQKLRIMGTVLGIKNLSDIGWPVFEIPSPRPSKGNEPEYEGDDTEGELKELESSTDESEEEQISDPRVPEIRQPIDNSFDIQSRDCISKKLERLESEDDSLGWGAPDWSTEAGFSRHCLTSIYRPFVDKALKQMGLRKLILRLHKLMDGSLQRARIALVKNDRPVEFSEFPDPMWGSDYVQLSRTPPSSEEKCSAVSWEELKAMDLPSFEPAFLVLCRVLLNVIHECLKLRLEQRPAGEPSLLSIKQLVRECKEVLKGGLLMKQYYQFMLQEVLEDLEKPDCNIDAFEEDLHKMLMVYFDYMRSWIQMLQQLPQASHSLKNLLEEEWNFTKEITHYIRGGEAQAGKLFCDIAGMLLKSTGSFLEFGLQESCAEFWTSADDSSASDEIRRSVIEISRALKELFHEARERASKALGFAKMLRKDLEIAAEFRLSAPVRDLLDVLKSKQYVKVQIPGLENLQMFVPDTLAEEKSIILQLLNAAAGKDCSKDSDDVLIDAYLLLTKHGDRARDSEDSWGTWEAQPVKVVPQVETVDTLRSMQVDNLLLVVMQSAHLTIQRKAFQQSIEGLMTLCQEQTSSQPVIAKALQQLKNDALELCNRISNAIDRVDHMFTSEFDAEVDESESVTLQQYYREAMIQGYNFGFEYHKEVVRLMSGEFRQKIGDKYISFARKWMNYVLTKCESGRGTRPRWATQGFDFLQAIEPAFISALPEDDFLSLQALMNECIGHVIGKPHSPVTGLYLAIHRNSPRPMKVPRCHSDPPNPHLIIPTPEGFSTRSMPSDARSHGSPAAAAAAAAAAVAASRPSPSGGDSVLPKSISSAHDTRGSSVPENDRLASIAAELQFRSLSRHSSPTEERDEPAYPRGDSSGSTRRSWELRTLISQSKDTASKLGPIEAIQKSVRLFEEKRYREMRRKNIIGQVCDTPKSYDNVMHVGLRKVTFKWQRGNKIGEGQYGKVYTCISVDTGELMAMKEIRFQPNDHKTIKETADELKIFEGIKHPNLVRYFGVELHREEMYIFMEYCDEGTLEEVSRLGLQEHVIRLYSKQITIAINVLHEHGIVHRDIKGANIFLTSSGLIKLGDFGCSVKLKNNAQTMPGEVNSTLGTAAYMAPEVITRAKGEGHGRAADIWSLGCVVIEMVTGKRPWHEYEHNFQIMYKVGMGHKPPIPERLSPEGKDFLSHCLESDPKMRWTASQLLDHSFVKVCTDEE
Chain of Mitotic checkpoint serine/threonine-protein kinase BUB1 (O43683 whole entry): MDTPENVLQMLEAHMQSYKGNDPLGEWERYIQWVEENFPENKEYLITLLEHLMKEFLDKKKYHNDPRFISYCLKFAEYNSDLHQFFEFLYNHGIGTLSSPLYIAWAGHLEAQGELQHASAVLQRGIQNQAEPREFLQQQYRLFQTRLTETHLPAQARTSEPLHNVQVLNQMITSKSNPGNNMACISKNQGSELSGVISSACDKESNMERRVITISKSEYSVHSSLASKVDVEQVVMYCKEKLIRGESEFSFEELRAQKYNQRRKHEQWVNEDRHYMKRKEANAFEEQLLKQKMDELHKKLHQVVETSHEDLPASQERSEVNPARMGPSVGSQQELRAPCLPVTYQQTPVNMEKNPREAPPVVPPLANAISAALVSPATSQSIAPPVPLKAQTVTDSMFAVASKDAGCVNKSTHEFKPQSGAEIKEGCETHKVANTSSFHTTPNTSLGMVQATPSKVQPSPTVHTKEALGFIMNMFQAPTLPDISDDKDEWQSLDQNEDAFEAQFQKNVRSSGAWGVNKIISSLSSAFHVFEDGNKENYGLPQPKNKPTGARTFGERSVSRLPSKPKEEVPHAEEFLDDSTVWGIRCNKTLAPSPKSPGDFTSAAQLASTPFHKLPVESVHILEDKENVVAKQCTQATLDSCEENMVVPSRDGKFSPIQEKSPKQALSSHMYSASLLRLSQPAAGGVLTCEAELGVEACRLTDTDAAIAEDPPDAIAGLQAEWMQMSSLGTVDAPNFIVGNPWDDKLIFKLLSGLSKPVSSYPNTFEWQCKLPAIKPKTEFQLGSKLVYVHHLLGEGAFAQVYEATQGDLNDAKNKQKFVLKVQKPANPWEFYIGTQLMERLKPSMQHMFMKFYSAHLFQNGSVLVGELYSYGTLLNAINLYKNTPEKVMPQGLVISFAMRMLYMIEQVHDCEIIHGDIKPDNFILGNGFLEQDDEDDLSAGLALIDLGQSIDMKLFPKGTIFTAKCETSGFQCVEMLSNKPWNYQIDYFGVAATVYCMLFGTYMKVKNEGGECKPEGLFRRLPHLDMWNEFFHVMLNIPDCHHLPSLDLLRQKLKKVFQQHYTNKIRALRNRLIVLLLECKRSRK

With `CC[C@H](Nc1ncnc2[nH]cnc12)c1nc2cccc(F)c2c(=O)n1-c1ccccc1` [IDELALISIB], the Kd in experiment [1], in experiment [2], in experiment [3], in experiment [4], in experiment [5] and in experiment [6] was > 30 µM (inactive) in each case. Besides, the Kd in [7], in [8], in experiment [9], in experiment [10], in experiment [11] and in experiment [12] was > 30 µM (inactive) in each case. Besides, the Kd in [13] and in experiment [14] was > 30 µM (inactive) throughout.

As for `CN1N=C(N)c2cn([C@@H]3O[C@H](COP(=O)(O)O)[C@@H](O)[C@H]3O)c3ncnc1c23` [TRICIRIBINE PHOSPHATE], the Kd in [1], in experiment [2], in experiment [3], in experiment [4], in experiment [5] and in [6] was > 30 µM (inactive) throughout. Moreover, the Kd in [7], in experiment [8], in experiment [9], in [10], in experiment [11] and in experiment [12] was > 30 µM (inactive) in each case. In addition, the Kd in experiment [13] and in [14] was > 30 µM (inactive) throughout.

As to `CNC(=O)CN1CCC(Oc2cc3c(Nc4cccc(Cl)c4F)ncnc3cc2OC)CC1` [SAPITINIB], the Kd in experiment [1], in experiment [2], in experiment [3], in experiment [4], in [5] and in [6] was > 30 µM (inactive) throughout. In addition, the Kd in [7], in [8], in experiment [9], in [10], in experiment [11] and in experiment [12] was > 30 µM (inactive) each time. Also, the Kd in [13] was > 30 µM (inactive); in experiment [14], 7.4 µM (active).

As to `O=C(c1ccc(F)c(F)c1Nc1ccc(I)cc1F)N1CC(O)([C@@H]2CCCCN2)C1` [COBIMETINIB], the Kd in [1], in experiment [2], in experiment [3], in [4], in [5] and in experiment [6] was > 30 µM (inactive) in each case. Also, the Kd in experiment [7], in experiment [8], in experiment [9], in [10], in [11] and in experiment [12] was > 30 µM (inactive) each time. In addition, the Kd in experiment [13] and in experiment [14] was > 30 µM (inactive) throughout.

Take `Cc1ccc(S(=O)(=O)Nc2nc3ccccc3nc2Nc2ccc3nsnc3c2)cc1`: the Kd in experiment [1], in experiment [2], in experiment [3], in experiment [4], in experiment [5] and in experiment [6] was > 30 µM (inactive) each time. For the same compound, the Kd in experiment [7], in experiment [8], in experiment [9], in experiment [10], in [11] and in experiment [12] was > 30 µM (inactive) throughout. Further, the Kd in experiment [13] and in experiment [14] was > 30 µM (inactive) throughout.

`Cc1ccc(NC(=O)c2ccc(CN3CC[C@H](N(C)C)C3)c(C(F)(F)F)c2)cc1Nc1nccc(-c2cncnc2)n1` [BAFETINIB]: the Kd in [1], in experiment [2], in experiment [3], in [4], in experiment [5] and in experiment [6] was > 30 µM (inactive) each time. The Kd in experiment [7] is 1.21 µM; in experiment [8] it was 3.13 µM (active); in experiment [9] it was > 30 µM (inactive); in experiment [10], > 30 µM (inactive); in experiment [11], > 30 µM (inactive); in experiment [12] it was > 30 µM (inactive). Moreover, the Kd in [13] is > 30 µM (inactive); in experiment [14], 1.98 µM (active).

`Cc1ccc(-n2nc(C(C)(C)C)cc2NC(=O)NCc2cc(F)ccc2Oc2ccc3c(cnn3CCO)c2)cc1` [PEXMETINIB]: the Kd in experiment [1], in experiment [2], in experiment [3], in [4], in experiment [5] and in experiment [6] was > 30 µM (inactive) in each case. Also, the Kd is 0.081 µM in experiment [7]; > 30 µM (inactive) in [8]; > 30 µM (inactive) in [9]; > 30 µM (inactive) in [10]; > 30 µM (inactive) in experiment [11]; > 30 µM (inactive) in experiment [12]. For the same compound, the Kd in experiment [13] and in experiment [14] was > 30 µM (inactive) in each case.

`CNS(=O)(=O)Nc1nccc(Cc2c(C)c3ccc(Oc4ncccn4)cc3oc2=O)c1F` [AVUTOMETINIB]: the Kd in experiment [1], in [2], in experiment [3], in experiment [4], in experiment [5] and in [6] was > 30 µM (inactive) in each case. Further, the Kd in [7], in [8], in experiment [9], in experiment [10], in experiment [11] and in [12] was > 30 µM (inactive) each time. The Kd in [13] and in experiment [14] was > 30 µM (inactive) throughout.
